In ChEMBL document CHEMBL4483862, “Open-source discovery of chemical leads for next-generation chemoprotective antimalarials” (2018):
pIC50: −log10 of the molar value.

System: Plasmodium berghei
Assay: Luciferase/luciferin-expressing antifolate-resistant parasites were used to infect a culture of HepG2 cells that were pre-incubated with compounds. Infected hepatocytes emit light due to the luciferase reaction. Assay results are presented as the percent inhibition of light emission compared to control. […]
Assay type: functional
Details: sporozoite; for IC90: read-out: LUCIFERASE INFECTION ASSAY - IC90
[1] = read-out: LUCIFERASE INFECTION ASSAY - IC50

| Structure (SMILES) | IC90 [µM] | also measured |
| --- | --- | --- |
| Cc1ccc(C(C)CCN2CCC3(CC2)C(=O)N(C2Cc4ccccc4C2)C(=O)N3CC(C)C)o1 (stereo not drawn) | > 6.91 | pIC50 (HEPG2TOX_HILL_SLOPE 5.24, HEPG2TOX_R_SQUARED 0.932, PBLUC_HILL_SLOPE 15.5, PBLUC_R_SQUARED 0.389, read-out: LUCIFERASE INFECTION ASSAY - IC50): 5.20 |
| CN(CCOc1ccc(Br)cc1)CC(O)COc1ccc(C#N)cc1 (stereo not drawn) | > 10 | pIC50 [1]: 5.06 |
| CC(C)Cc1ccc(C(Nc2ccc3nnnn3n2)C(C)C)cc1 (stereo not drawn) | 3.82 | pIC50 (PBLUC_HILL_SLOPE 13.1, PBLUC_R_SQUARED 0.631, read-out: LUCIFERASE INFECTION ASSAY - IC50): 5.49 |
| CCCCn1c(SCC(=O)Nc2cc(C(F)(F)F)ccc2N2CCOCC2)nc2ccccc21 | > 10 | pIC50 [1]: < 5.00 |
| O=C(c1cccc(C(F)(F)F)c1)N1CCc2c([nH]c3ccccc23)C1C(F)(F)F (stereo not drawn) | > 8 | pIC50 (FFLUC_HILL_SLOPE 6.83, FFLUC_R_SQUARED 0.392, HEPG2TOX_HILL_SLOPE 7.06, HEPG2TOX_R_SQUARED 0.861, PBLUC_HILL_SLOPE 3.46, PBLUC_R_SQUARED 0.38, read-out: LUCIFERASE INFECTION ASSAY - IC50): 5.34 |
| O=C(Nc1nc(C23CC4CC(CC(C4)C2)C3)cs1)C1=COCCO1 | > 10 | pIC50 (PBLUC_HILL_SLOPE 3.95, PBLUC_R_SQUARED 0.0619, read-out: LUCIFERASE INFECTION ASSAY - IC50): 5.15 |
| Cc1ccc(CNC(=O)c2ccc(/C=C3\SC(=O)NC3=O)cc2)cc1 | > 10 | pIC50 (PBLUC_HILL_SLOPE 1.15, PBLUC_R_SQUARED 0.802, read-out: LUCIFERASE INFECTION ASSAY - IC50): 5.60 |
| CC(C)c1ccc(OCC(=O)NC2CCCCCCC2)cc1 | > 10.9 | pIC50 (PBLUC_HILL_SLOPE 1.5, PBLUC_R_SQUARED 0.0788, read-out: LUCIFERASE INFECTION ASSAY - IC50): < 4.96 |
| CC(C)N1CCCc2cc(CN3CCC4(CC3)C(=O)N(CCCc3ccncc3)C(=O)N4C)ccc21 | > 6.74 | pIC50 (HEPG2TOX_HILL_SLOPE 0.974, HEPG2TOX_R_SQUARED 0.954, PBLUC_HILL_SLOPE 1.42, PBLUC_R_SQUARED 0.506, read-out: LUCIFERASE INFECTION ASSAY - IC50): 5.46 |
| COc1ccc(C(=O)Nc2ccc(Oc3cc(C(F)(F)F)cc(C(F)(F)F)c3)cc2)cc1 | 2.35 | pIC50 [1]: 6.31 |
| O=C(Cc1csc(-c2ccccc2)n1)Nc1nc2c(s1)CCCC2 | > 10 | pIC50 [1]: < 5.00 |
| O=C(CN(Cc1ccco1)C(=O)c1ccc(-c2cccc(C(F)(F)F)c2)o1)Nc1ccccc1Br | > 10 | pIC50 [1]: < 5.00 |
| CCCCN(C)CC(O)Cn1c2ccc(Cl)cc2c2cc(Cl)ccc21 (stereo not drawn) | 6.48 | pIC50 (HEPG2TOX_HILL_SLOPE 6.86, HEPG2TOX_R_SQUARED 0.608, PBLUC_HILL_SLOPE 4.67, PBLUC_R_SQUARED 0.619, read-out: LUCIFERASE INFECTION ASSAY - IC50): 5.39 |
| O=C(Nc1ccc(Oc2ccc(OC(F)(F)F)cc2)cc1)Nc1ccc(OC(F)(F)F)cc1 | > 6.99 | pIC50 [1]: < 5.16 |
| CN(CC(=O)Nc1ccc(-c2nc3ccccc3[nH]2)cc1)S(=O)(=O)c1cccs1 | > 10 | pIC50 (PBLUC_HILL_SLOPE 3.6, PBLUC_R_SQUARED 0.614, read-out: LUCIFERASE INFECTION ASSAY - IC50): 5.08 |
| COCCn1c(C)cc(C(=O)CN2C(=O)NC(C)(c3ccc(C(C)(C)C)cc3)C2=O)c1C (stereo not drawn) | > 10 | pIC50 (PBLUC_HILL_SLOPE 3.36, PBLUC_R_SQUARED 0.275, read-out: LUCIFERASE INFECTION ASSAY - IC50): 5.21 |
| C1=C(c2c[nH]c3ncccc23)CCN(c2ncnc3n[nH]cc23)C1 | > 10 | pIC50 (HEPG2TOX_HILL_SLOPE 0.924, HEPG2TOX_R_SQUARED 0.995, PBLUC_HILL_SLOPE 2.5, PBLUC_R_SQUARED 0.123, read-out: LUCIFERASE INFECTION ASSAY - IC50): 5.12 |
| Cc1cc(NC(c2cccc(Br)c2)c2ccc3cccnc3c2O)no1 (stereo not drawn) | 5.63 | pIC50 (FFLUC_HILL_SLOPE 0.447, FFLUC_R_SQUARED 0.211, HEPG2TOX_HILL_SLOPE 1.34, HEPG2TOX_R_SQUARED 0.983, PBLUC_HILL_SLOPE 2.79, PBLUC_R_SQUARED 0.445, read-out: LUCIFERASE INFECTION ASSAY - IC50): 5.59 |
| c1ccc(-c2csc3ncnc(Sc4nnc(C5COc6ccccc6O5)n4-c4ccccc4)c23)cc1 (stereo not drawn) | > 10 | pIC50 [1]: < 5.00 |
| COc1ccc(CNc2nc3cnc(Nc4ccc(OC(F)(F)F)cc4)cc3n2C)cc1OC | > 10 | pIC50 [1]: < 5.00 |

| Structure (SMILES) | IC90 [µM] | also measured |
| --- | --- | --- |
| CC1(c2ccc3ccccc3c2)NC(=O)N(CC(=O)NC(CN2CCOCC2)c2ccccc2)C1=O (stereo not drawn) | > 10 | pIC50 [1]: < 5.00 |
| CCOc1cc(/C=C/C(=O)c2ccc3c(c2)OCCO3)cc(Br)c1OCC(=O)N(C)C | 9.9 | pIC50 (PBLUC_HILL_SLOPE 4.45, PBLUC_R_SQUARED 0.571, read-out: LUCIFERASE INFECTION ASSAY - IC50): 5.22 |
| CC(C)S(=O)(=O)c1csc(NC(=O)Nc2cccc(Cl)c2)c1 | > 9.2 | pIC50 (PBLUC_HILL_SLOPE 17.1, PBLUC_R_SQUARED 0.0949, read-out: LUCIFERASE INFECTION ASSAY - IC50): 5.06 |
| COc1ccc2cc(CN(C)C(C)C(=O)NCc3ccc(F)cc3)ccc2c1 (stereo not drawn) | > 10 | pIC50 (HEPG2TOX_HILL_SLOPE 14.9, HEPG2TOX_R_SQUARED 0.671, read-out: LUCIFERASE INFECTION ASSAY - IC50): < 5.00 |
| Cc1ccc(SC(=O)c2c(C)noc2-c2ccc(Cl)cc2)cc1 | > 9.6 | pIC50 (HEPG2TOX_HILL_SLOPE 11.7, HEPG2TOX_R_SQUARED 0.856, PBLUC_HILL_SLOPE 3.58, PBLUC_R_SQUARED 0.522, read-out: LUCIFERASE INFECTION ASSAY - IC50): 5.12 |
| CS(=O)(=O)C(C#N)=Cc1ccccc1OCc1c(Cl)cccc1Cl | > 8.63 | pIC50 (FFLUC_HILL_SLOPE 9.87, FFLUC_R_SQUARED 0.717, read-out: LUCIFERASE INFECTION ASSAY - IC50): < 5.06 |
| Cc1cccc(C)c1NC(=S)NC1CC(C)CC(C)(C)C1 (stereo not drawn) | 5.5 | pIC50 (HEPG2TOX_HILL_SLOPE 2.42, HEPG2TOX_R_SQUARED 0.462, PBLUC_HILL_SLOPE 8.54, PBLUC_R_SQUARED 0.744, read-out: LUCIFERASE INFECTION ASSAY - IC50): 5.37 |
| CCCCNC(=O)c1c(NCCC)sc(C(=O)c2ccc(OC)cc2)c1N | > 10 | pIC50 (PBLUC_HILL_SLOPE 4.7, PBLUC_R_SQUARED 0.148, read-out: LUCIFERASE INFECTION ASSAY - IC50): 5.05 |
| CC(C)N(C(=O)CSC1=NC(c2ccccc2)C2=C(N1)/C(=C/c1ccccc1)CCC2)c1ccccc1 (stereo not drawn) | 9.39 | pIC50 (FFLUC_HILL_SLOPE 9.66, FFLUC_R_SQUARED 0.711, HEPG2TOX_HILL_SLOPE 8.12, HEPG2TOX_R_SQUARED 0.779, PBLUC_HILL_SLOPE 2.67, PBLUC_R_SQUARED 0.724, read-out: LUCIFERASE INFECTION ASSAY - IC50): 5.39 |
| COc1cc2c(cc1NC(=O)C(C)NCC(c1ccccc1)N(C)C)oc1ccccc12 (stereo not drawn) | > 10 | pIC50 [1]: < 5.00 |
| Cc1nn(Cc2ccccc2)c2sc(C(=O)Nc3nc4ccccc4[nH]3)cc12 | 0.562 | pIC50 (HEPG2TOX_HILL_SLOPE 0.737, HEPG2TOX_R_SQUARED 0.843, PBLUC_HILL_SLOPE 3.70, 1.65, PBLUC_R_SQUARED 0.424, 0.851, read-out: LUCIFERASE INFECTION ASSAY - IC50): 6.64 |
| COc1ccc(Oc2sccc2[N+](=O)[O-])cc1 | > 13.1 | pIC50 (FFLUC_HILL_SLOPE 0.766, FFLUC_R_SQUARED 0.0624, read-out: LUCIFERASE INFECTION ASSAY - IC50): < 4.88 |
| CCOC(=O)c1sc(N)c(C#N)c1CSc1nnc(Cc2cccc3ccccc23)n1C1CCCCC1 | 9.87 | pIC50 (PBLUC_HILL_SLOPE 16.7, PBLUC_R_SQUARED 0.489, read-out: LUCIFERASE INFECTION ASSAY - IC50): 5.06 |
| CC1CCCCN1CCCNC(=S)Nc1cc(C(F)(F)F)cc(C(F)(F)F)c1 (stereo not drawn) | > 7.72 | pIC50 (PBLUC_HILL_SLOPE 2.02, PBLUC_R_SQUARED 0.36, read-out: LUCIFERASE INFECTION ASSAY - IC50): 5.43 |
| Cc1ccc(-c2nnc(N/N=C3/C=C(c4ccccc4)C(O)(c4ccccc4)C3)c3ccccc23)cc1C (stereo not drawn) | > 10 | pIC50 (FFLUC_HILL_SLOPE 18, FFLUC_R_SQUARED 0.659, PBLUC_HILL_SLOPE 2.04, PBLUC_R_SQUARED 0.344, read-out: LUCIFERASE INFECTION ASSAY - IC50): 5.19 |
| O=C(c1ccccc1)C1(c2nc3ccccc3s2)Sc2ccccc2C1=O (stereo not drawn) | 7.72 | pIC50 (HEPG2TOX_HILL_SLOPE 2.24, HEPG2TOX_R_SQUARED 0.913, PBLUC_HILL_SLOPE 6.06, PBLUC_R_SQUARED 0.741, read-out: LUCIFERASE INFECTION ASSAY - IC50): 5.27 |
| OCc1ccc(-c2cnc3ccc(-c4cccc(OC(F)(F)F)c4)nn23)cc1 | 3.46 | pIC50 (FFLUC_HILL_SLOPE 15.5, FFLUC_R_SQUARED 0.126, HEPG2TOX_HILL_SLOPE 8.34, HEPG2TOX_R_SQUARED 0.955, PBLUC_HILL_SLOPE 1.79, PBLUC_R_SQUARED 0.869, read-out: LUCIFERASE INFECTION ASSAY - IC50): 6.00 |
| CCN(CC)S(=O)(=O)c1cccc(-c2nnc(SCC(=O)N3CCC(c4ccccc4)=N3)n2Cc2ccccc2)c1 | > 10 | pIC50 (FFLUC_HILL_SLOPE 11.4, FFLUC_R_SQUARED 0.285, PBLUC_HILL_SLOPE 0.735, PBLUC_R_SQUARED 0.117, read-out: LUCIFERASE INFECTION ASSAY - IC50): < 5.00 |
| Cc1nn(CC(C)C)c(Cl)c1C(=O)Nc1nc(-c2ccccn2)cs1 | 3.35 | pIC50 (HEPG2TOX_HILL_SLOPE 0.847, HEPG2TOX_R_SQUARED 0.93, PBLUC_HILL_SLOPE 12, PBLUC_R_SQUARED 0.706, read-out: LUCIFERASE INFECTION ASSAY - IC50): 5.55 |
